Test results from patent US20180116993A1, “MODULATORS OF FARNESOID X RECEPTOR AND METHODS FOR THE USE THEREOF” (XIAMEN UNIVERSITY, priority 2015, published 2018).
Like-named read-outs stand apart in the source and are kept apart here. Marks after values point to notes of the source that are not given here.

How the values were obtained:
[1] = system: human colorectal adenocarcinoma HCT15 cells; assay: MTT cell viability assay, HCT15; format: cell-based; conditions: 48 h, read-out: Cell viability as a percentage of the cells treated with DMSO, HCT15
From the text: (§1) The MTT assay is a colorimetric assay for assessing cell metabolic activity. It is widely used in high-throughput screening of antitumor drugs due to its high sensitivity and economical features. In this example, MTT was used to detect the inhibitory effects of compounds on various cancer cell lines. Cancer cells including human colorectal adenocarcinoma HCT15 cells, RA-resistant human colon cancer HCT116 cells, human cervical carcinoma Hela cells, human hepatoma HepG2 cells and human breast cancer MCF7 cells were cultured in DMEM medium containing 10% fetal bovine serum. 20 uM or 40 uM of compounds were administered to treat cells, cell viability is detected by MTT assay and expressed as a percentage of the cells treated with DMSO (Table 4).

[2] = system: human breast cancer MCF7 cells; assay: MTT cell viability assay, MCF-7; format: cell-based; conditions: 48 h, read-out: Cell viability as a percentage of the cells treated with DMSO, MCF-7
From the text: as §1

[3] = system: RA-resistant human colon cancer HCT116 cells; assay: MTT cell viability assay, HCT116; format: cell-based; conditions: 48 h, read-out: Cell viability as a percentage of the cells treated with DMSO, HCT116
From the text: as §1

[4] = target: T1, FXR ligand binding domain (LBD) (Homo sapiens, UniProt Q96RI1); assay: AlphaScreen assay: FXR LBD recruitment of coregulator peptide motifs (SRC2-3, SRC1-2); format: biochemical; conditions: Table 2
T1 construct: made in house
T1 sequence (Q96RI1 262-486 limits assumed): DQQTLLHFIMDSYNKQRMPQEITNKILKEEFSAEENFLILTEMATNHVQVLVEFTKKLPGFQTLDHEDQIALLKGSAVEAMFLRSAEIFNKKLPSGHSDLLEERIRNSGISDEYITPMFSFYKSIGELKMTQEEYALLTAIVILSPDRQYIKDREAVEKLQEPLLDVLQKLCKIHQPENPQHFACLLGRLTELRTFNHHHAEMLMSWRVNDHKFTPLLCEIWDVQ
Experimental: In search of novel ligands for FXR, we used FXR ligand binding domain (LBD) as a bait to screen chemical libraries based on AlphaScreen biochemical assay, which determines the efficacy of small molecules in influencing binding affinity of FXR with coregulator peptides (see e.g., Jin et al., (2013) Nature communications 4, 1937).
The binding of the cofactor peptide motifs to FXR ligand binding domain (LBD) in response to ligands was determined by AlphaScreen assays using a hexahistidine detection kit from Perkins-Elmer. The FXR LBD protein was purified as described previously (see e.g., Jin et al., (2013) Nature communications 4, 1937). The experiments were conducted with approximately 20-40 nM receptor LBD and 20 nM biotinylated cofactor peptides in the presence of 5 μg/ml donor and acceptor beads in a buffer containing 50 mM MOPS, 50 mM NaF, 0.05 mM CHAPS, and 0.1 mg/ml bovine serum albumin, all adjusted to a pH of 7.4.

[5] = system: human hepatoma HepG2 cells; assay: MTT cell viability assay, HepG2; format: cell-based; conditions: 48 h, read-out: Cell viability as a percentage of the cells treated with DMSO, HepG2
From the text: as §1

db/db mice = assay: Hepatic triglyceride, liver histology, serum ALT and ALP in high-fat diet fed db/db mice; format: in vivo, mouse; conditions: 10 mg/kg once daily for 10 days
Experimental: Liver tissues fixed in 4% paraformaldehyde in example 5 were performed for H&E staining by standard procedures. Liver tissues fixed in 4% paraformaldehyde were embedded in optimum cutting temperature compound (OCT), and cryosectioned. Frozen liver sections were stained with 0.3% oil red O according to standard procedures.
The triglyceride levels in liver tissues from mice treated with compounds were analyzed using Tissue triglyceride assay kit (Applygen, Beijing, China).
Alkaline Phosphatase (ALP) is a marker of cholestasis. Cholestasis can be suspected when there is an elevation of ALP enzymes. In fact, greater than 90% of patients with bile stasis will have an elevated alkaline phosphatase. […] The aminotransferase is used to evaluate the presence of hepatitis and may be elevated in cholestasis or with common bile duct obstruction. In this example, 8-10 week age db/db mice were fed with high-fat diet and treated with 10 mg/kg of compounds once daily for 10 days as in Example 5. The activities of serum ALP and ALT were analyzed using ALP kit and ALT kit, respectively (Nanjing Jiancheng Engineering Institute, China).

full-length FXR = target: T2, full-length FXR (Homo sapiens, UniProt Q96RI1); assay: Cell-based FXR transactivation, EcRE luciferase reporter in COS-7 cells; conditions: Table 2
T2 construct: The cells were co-transfected with plasmids encoding full-length FXR and the cognate luciferase reporter EcRE-Luc; expressed in transfected cells; host or cells: COS-7
T2 sequence (Q96RI1 1-486): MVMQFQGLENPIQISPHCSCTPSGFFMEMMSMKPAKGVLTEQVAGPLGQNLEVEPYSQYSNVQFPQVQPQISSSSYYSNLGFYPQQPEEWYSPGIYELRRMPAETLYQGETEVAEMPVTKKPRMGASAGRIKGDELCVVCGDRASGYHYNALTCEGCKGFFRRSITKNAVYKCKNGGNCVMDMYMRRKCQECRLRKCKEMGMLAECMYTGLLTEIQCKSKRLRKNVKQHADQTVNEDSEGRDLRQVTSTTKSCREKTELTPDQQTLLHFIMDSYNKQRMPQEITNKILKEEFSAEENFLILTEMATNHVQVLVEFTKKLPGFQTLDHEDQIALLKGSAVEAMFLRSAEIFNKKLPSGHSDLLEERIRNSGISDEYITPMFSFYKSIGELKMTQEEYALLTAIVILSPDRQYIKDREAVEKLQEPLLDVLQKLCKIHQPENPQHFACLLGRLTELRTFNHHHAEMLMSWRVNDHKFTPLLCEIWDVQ
Experimental: COS-7 cells were cotransfected with plasmids encoding full length FXR.
For transient transfection assay, COS-7 cells were maintained in DMEM containing 10% fetal bovine serum and were transiently transfected using Lipofectamine 2000 (Invitrogen). Before 24 h of transfection, 24-well plates were plated. The cells were co-transfected with plasmids encoding full-length FXR and the cognate luciferase reporter EcRE-Luc. Ligands were added 5 hours after transfection. Cells were harvested 24 hours later for the luciferase assays according to the manufacturer's instructions (Dual-Luciferase® Reporter Assay System, Promega). Luciferase activities were normalized to renilla activity co-transfected as an internal control.

[6] = system: human cervical carcinoma Hela cells; assay: MTT cell viability assay, Hela; format: cell-based; conditions: 48 h, read-out: Cell viability as a percentage of the cells treated with DMSO, Hela
From the text: as §1

[7] = system: inflammatory cytokines in tissues of db/db mice; assay: Inflammatory cytokine mRNA levels in tissues of high-fat diet fed db/db mice (RT-PCR); format: in vivo, mouse; conditions: 5 mg/kg
From the text: In this example, we detected the levels of various inflammatory cytokines including iNOS, IFNγ, TGFβ, TNFα, COX2, IL-1β, IL-6, SAA1, MIP-1α and CD36 in liver, kidney, white adipose tissue (WAT) in various mice models, including wild type mice treated with APAP in example 4, high-fat diet fed diabetic and obesity db/db and KK-Ay mice in example 5, high-fat diet fed wild-type mice in Example 5, as well as in primary hepatocytes with LPS induced inflammation, using RT-PCR.

EC50 ([4]; SRC1-2 peptide, read-out: EC50 (μM) of FXR binding by AlphaScreen assay recruit SRC1-2): < 1 µM
EC50 ([4]; SRC2-3 peptide, read-out: EC50 (μM) of FXR binding by AlphaScreen assay recruit SRC2-3): < 1 µM
Cell-based FXR transactivation Fold changes by 5 μM compound (full-length FXR; 5 μM compound, positive: induction, minus: repression): −5
EC50 (full-length FXR; EcRE luciferase reporter): < 1000 nM
SMILES: COc1cc(C(=O)OC2CCC3CCCCC3C2)ccc1N (stereo not drawn) [XD-32, decahydro-naphthalen-2-yl 4-amino-3-methoxybenzoate]
viability at 20 µM ([1]; HCT-15, 20 uM): 80 ± 7%
viability at 40 µM ([1]; HCT-15, 40 uM): 35 ± 7%
viability at 20 µM ([2]; 20 uM): 100 ± 7%
viability at 40 µM ([2]; 40 uM): 95 ± 7%
viability at 20 µM ([3]; HCT-116, 20 uM): 65 ± 7%
viability at 40 µM ([3]; HCT-116, 40 uM): 53 ± 7%
viability at 20 µM ([5]; 20 uM): 100 ± 7%
viability at 40 µM ([5]; 40 uM): 74 ± 7%
Serum ALP (U/L) (db/db mice; vehicle 129 ± 15): 83 ± 23^a U/L
Serum ALT (U/L) (db/db mice; vehicle 377 ± 48, Table 17): 110 ± 42^a U/L
viability at 20 µM ([6]; 20 uM): 73%
viability at 40 µM ([6]; 40 uM): 30 ± 7%
mRNA level of iNOS (fold), Liver tissue ([7]; vehicle 1.06 ± 0.14): 0.22 ± 0.12^a fold
mRNA level of iNOS (fold), Colon tissue ([7]; vehicle 1.12 ± 0.23): 0.45 ± 0.13^a fold
